In PMC6114080 (International Journal for Parasitology: Drugs and Drug …, 2018):

Tests used:
Assay type in all cases: biochemical
HsGPI = HsGPI (Homo sapiens, UniProt P06744); assay: G6PDH-coupled NADH assay at […] nm
CpGPI (MBP-CpGPI) [1] = target: T1, CpGPI (MBP-CpGPI) (Cryptosporidium parvum, UniProt Q5CTF8); assay: G6PDH-coupled NADH assay at […] nm, mixed noncompetitive fit
T1 sequence (Q5CTF8 1-567): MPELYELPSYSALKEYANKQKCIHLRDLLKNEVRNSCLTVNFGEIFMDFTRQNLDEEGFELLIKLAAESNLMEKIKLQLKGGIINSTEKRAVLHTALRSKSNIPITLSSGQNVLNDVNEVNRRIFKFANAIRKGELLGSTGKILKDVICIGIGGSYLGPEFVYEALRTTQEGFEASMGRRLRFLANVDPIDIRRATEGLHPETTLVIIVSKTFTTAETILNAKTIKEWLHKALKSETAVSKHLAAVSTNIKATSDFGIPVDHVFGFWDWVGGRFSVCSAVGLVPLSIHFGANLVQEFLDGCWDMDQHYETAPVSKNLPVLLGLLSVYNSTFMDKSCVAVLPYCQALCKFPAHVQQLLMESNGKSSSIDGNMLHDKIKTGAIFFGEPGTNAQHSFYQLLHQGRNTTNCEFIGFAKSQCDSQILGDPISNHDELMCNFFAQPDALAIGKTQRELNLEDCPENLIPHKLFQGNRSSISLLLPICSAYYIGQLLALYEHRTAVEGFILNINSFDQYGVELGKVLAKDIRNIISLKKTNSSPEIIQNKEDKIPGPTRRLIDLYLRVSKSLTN

CpGPI (MBP-CpGPI) [2] = target: T1, CpGPI (MBP-CpGPI); assay: G6PDH-coupled NADH assay at […] nm

SMILES	IC50 (HsGPI)	Ki (CpGPI (MBP-CpGPI) [1])	IC50 (CpGPI (MBP-CpGPI) [2])
O=c1c2ccccc2[se]n1-c1ccccc1 [ebselen, 2-phenyl-1,2-benzisoselenazol-3(2H)-one]	> 400 µM	36.3 µM	8.33 µM
O=C[C@H](O)[C@H](O)COP(=O)(O)O [erythrose-4-phosphate]	–	–	132 µM
